# Test results as given in patent US6881584B1, “Infrared thermography” (SmithKline Beecham Corporation, priority 1998, dated 2005).
# Test system: liver
# Assay: Liver thermogenesis in AKR mice with IR transparent adhesive
# Type: in vivo
# Conditions: AKR mice on high-fat diet, 75 mg/kg i.g., 5 hours
# Description: FIG. 31. Liver thermogenesis in AKR mice 5 hours after treatment with the nucleoside reverse transcriptase inhibitor (NRTI) D4T detected by IR thermography. Male AKR mice were housed 5 per cage and maintained on high fat diet (58% kCals as fat) and water ad libitum. Mice were dosed at 0, 1, 10, 75, and 100 mg/kg D4T in water vehicle (0.5 mL i.g.; n=10 per dose) and anesthetized using isoflurane as described above 5 hours after treatment. The abdomens of the anesthetized mice were surgically opened to expose the liver and Bioclusive adhesive was placed over the entire exposed area. IR images of the liver region were acquired and analyzed as detailed in FIG. 28. […] Quantification of the IR signal depicted in the image is shown in the bottom left panel. Analysis of the dose response to D4T is shown in the panel to the right. Data shown are means±SEM for n=10 animals per group.
# AKR mice fed a high-fat diet were treated with 75 mg/kg D4T, and their abdomens were surgically opened and covered with Bioclusive adhesive 5 hour later. […] This decrease is quantitated in the lower left panel of FIG. 31. Moreover, the dose-dependent effect of D4T on decreased liver temperature determined using IR thermography (FIG. 31, right panel) correlated well with the effect of D4T treatment on serum non-esterified fatty acid levels (r=0.91, data not shown).
structure (smiles),measurement,value
Cc1cn([C@H]2C=C[C@@H](CO)O2)c(=O)[nH]c1=O [D4T],liver temperature,decrease in temperature
